Test results as given in patent US9814241B2.

What was measured:
Sphaerotheca fuliginea = assay: Sphaerotheca test (cucumbers)/preventive; details: preventive, 100 ppm a.i., evaluated 7 days after inoculation
Description: After the spray coating has dried on, the plants are inoculated with an aqueous spore suspension of Sphaerotheca fuliginea. The plants are then placed in a greenhouse at approximately 23° C. and a relative atmospheric humidity of approximately 70%.
The test is evaluated 7 days after the inoculation.

Alternaria solani = assay: Alternaria test (tomatoes)/preventive; type: in vivo; details: preventive, evaluated 3 days after inoculation
Venturia inaequalis = assay: Venturia test (apples)/preventive; details: preventive, 100 ppm a.i., evaluated 10 days after inoculation
Description: After the spray coating has dried on, the plants are inoculated with an aqueous conidia suspension of the causal agent of apple scab (Venturia inaequalis) and then remain for 1 day in an incubation cabinet at approximately 20° C. and a relative atmospheric humidity of 100%.
The plants are then placed in a greenhouse at approximately 21° C. and a relative atmospheric humidity of approximately 90%.
The test is evaluated 10 days after the inoculation.

In the case of `N#Cc1ccccc1NC(=O)c1snc(Cl)c1Cl` [F187, isotianil], the “Efficacy in % Found” value (Sphaerotheca fuliginea) is reported as 0%, the “Efficacy in % Found” value (Alternaria solani; Table C1, tomatoes, 50 ppm a.i.) is reported as 36% and the “Efficacy in % Found” value (Venturia inaequalis) is reported as 0%.

In the case of `Cc1cc(C(F)(F)F)nn1CC(=O)N1CCC(c2nc(C3=NOC(c4c(F)cccc4F)C3)cs2)CC1` (stereo not drawn) [F315, 1-(4-{4-[5-(2,6-difluorophenyl)-4,5-dihydro-1,2-oxazol-3-yl]-1,3-thiazol-2-yl}piperidin-1-yl)-2-[5-methyl-3-(trifluoromethyl)-1H-pyrazol-1-yl]ethanone], the “Efficacy in % Found” value (Alternaria solani; Table C1, tomatoes, 100 ppm a.i.) is reported as 0%.

With fosetyl-aluminium [F281] the “Efficacy in % Found” value (Alternaria solani; Table C2, tomatoes, 100 ppm a.i.) was 0%.

For phosphorous acid and its salts [F298], the “Efficacy in % Found” value (Alternaria solani; Table C2, tomatoes, 400 ppm a.i.) was 35%.
